Counter-ions that a name gives are not always drawn. Like-named read-outs stand apart in the source and are kept apart here.
Biological target: T1, Rat brain protein farnesyltransferase (Rattus norvegicus, UniProt Q02293+Q04631)
T1 construct: The enzyme is purified according to Reiss, Y., et al., Cell, 62: 81-88 (1990), utilizing steps one through three; from tissue; host or cells: rat brain
Experiment: In vitro inhibition of protein farnesyltransferase, Amersham scintillation proximity assay with biotin-K Ras B fragment
Type: biochemical
Settings: for inhibition at 1 µM: read-out: % inhibition at 1 × 10^−6 M; for inhibition at 0.1 µM: read-out: % inhibition at 1 × 10^−7 M
From the text: The ability of the compounds of the invention to inhibit protein farnesyltransferase or protein geranylgeranyltransferase can be measured according to the method of Moores, et al., J. Biol. Chem. 266: 14603 (1991) or the method of Vogt, et al., J. Biol. Chem. 270:660-664 (1995). In addition, procedures for determination of the inhibition of farnesylation of the oncogene protein Ras are described by Goldstein, et al., J. Biol. Chem., 266:15575-15578 (1991) and by Singh in U.S. Pat. No. 5,245,061.
In addition, in vitro inhibition of protein farnesyltransferase may be measured by the following procedure. Rat brain protein farnesyltransferase activity is measured using an Amersham Life Science commercial scintillation proximity assay kit and substituting a biotin-K Ras B fragment (biotin-[…]Ue-Met-CO2H), 0.1 mM final concentration, for the biotin-lamin substrate provided by Amersham. The enzyme is purified according to Reiss, Y., et al., Cell, 62: 81-88 (1990), utilizing steps one through three. […]
The % inhibition of protein farnesyltransferase was determined for representative compounds of the invention.

[1] = Inhibition of farnesyltransferase, compound at 1 × 10^−6 M (Table 2)
[2] = Inhibition of farnesyltransferase, compound at 1 × 10^−8 M (Table 4), read-out: % inhibition at 1 × 10^−8 M
[3] = Inhibition of farnesyltransferase, compound at 1 × 10^−7 M (Table 3)

With `CSCCC(NC(=O)c1ccc(C=Cc2cccnc2)cc1-c1ccccc1C)C(=O)NS(=O)(=O)c1ccc(C)cc1` (stereo not drawn) [Example 277, {4-[2-(Pyrid-3-yl)ethenyl]-2-(2-methylphenyl)benzoyl}methionine 4-Tolylsulfonamide] the “% inhibition at 1 × 10^−6 M” value [1] was 98%.

`CSCC[C@H](NC(=O)c1cc(Cc2ccccc2)c(CN(Cc2ccccc2)c2cccnc2)cc1-c1ccccc1C)C(=O)O` [Example 920, N-[5-Benzyl-4-(N-pyrid-3-yl-N-benzylaminomethyl)-2-(2-metbylphenyl)benzoyl]methionine] showed an inhibition at 0.01 µM [2] of 96%.

`CSCC[C@H](NC(=O)c1cc(-c2cc(Cl)cc(Cl)c2)c(COc2cccnc2)cc1-c1ccccc1C)C(=O)O` [Example 345] showed an inhibition at 1 µM [1] of 91%.

`CSCCCNC(=O)c1ccc(CN(Cc2ccccc2)c2cccnc2)cc1-c1ccccc1C` [Example 926, 3-Methylthiopropyl N-4-(N-Pyrid-3-yl-N-benzylaminomethyl)-2-(2-methylphenyl)benzamide] was tested, and the inhibition at 1 µM [1] was 69%.

`CSCC[C@@H](C(=O)O)N(C)C(=O)c1ccc(CNc2cccnc2)cc1-c1ccccc1` [Example 159, [4-(3-Pyridylaminomethyl)-2-phenylbenzoyl]-N-methylmethionine] showed an inhibition at 1 µM [1] of 84%.

In the case of `CSCC[C@H](NC(=O)c1cc(CC(C)C)c(COc2cccnc2)cc1-c1ccccc1C)C(=O)O` [Example 320, [4-(3-Pyridyloxymethyl)-2-(2-methylphenyl)-5-isobutylbenzoyl]methionine], the inhibition at 1 µM [1] is reported as 93%.

Compound `CSCC[C@H](NC(=O)c1ccc(CN(CC2CCCCC2)c2cccnc2)cc1-c1ccccc1C)C(=O)O` [Example 408] has an inhibition at 0.01 µM [2] of over 95%.

Work on `CSCC[C@H](NC(=O)c1ccc(COc2cccnc2)cc1-c1ccccc1)c1nnc(C(F)(F)F)[nH]1` [Example 272, N-[3-(Methylthio)-1-(2-trifluoromethyl-1H-1,3,4-triazol-5-yl)propyl]-4-(3-pyridyloxymethyl)-2-phenylbenzamide] yielded an inhibition at 1 µM of 96%.

Compound `CSCC[C@H](NC(=O)c1ccc(NCc2cccnc2)cc1-c1ccccc1)C(N)=O` [Example 196, [4-(3-Pyridylmethylamino)-2-phenylbenzoyl]methionineamide] has an inhibition at 1 µM [1] of 43%.

For `Cc1ccccc1-c1cc(/C=C/c2cnc3ccccc3c2)ccc1C(=O)N[C@@H](CC[S+](C)[O-])C(=O)O` (stereo partly drawn) [Example 488], the inhibition at 1 µM [1] was 41%.

`CSCC[C@H](NC(=O)c1ccc(NC(=O)c2cccnc2)cc1-c1ccccc1C)C(=O)O` [Example 301, [4-(3-Pyridylcarbonylamino)-2-(2-methylphenyl)benzoyl]methionine] showed an inhibition at 1 µM [1] of 98%.

`CSCC[C@H](NC(=O)c1ccc(NC(=O)c2cccnc2)cc1-c1ccccc1)C(=O)O` [Example 200, [4-(3-Pyridylcarbonylamino)-2-phenylbenzoyl]methionine Hydrochloride] gave an inhibition at 10 µM (Inhibition of farnesyltransferase, compound at 1 × 10^−5 M (Table 1)) of 93%.

In the case of `CS(=O)(=O)CC[C@H](NC(=O)c1ccc(/C=C/c2cccnc2)cc1-c1ccccc1)C(=O)O` [Example 220, N-{4-[2-(Pyrid-3-yl)ethenyl]-2-phenylbenzoyl]-2-amino-4-(methylsulfonyl)butanoic Acid], the inhibition at 1 µM [1] is reported as 92%.

For `CSCC[C@H](NC(=O)c1ccc(COc2cccnc2)cc1-c1ccccc1)C(=O)NS(=O)(=O)N1CCSCC1` [Example 603, Thiomorpholinesulfonyl N-2-[4-(Pyrid-3-yloxymethyl)-2-phenylbenzoyl]amino-4-methylthiobutanamide], the inhibition at 0.01 µM [2] was 94%.

With `CSCC[C@H](NC(=O)c1ccc(CCc2cncc(Cc3ccccc3)c2)cc1-c1ccccc1C)C(=O)O` [Example 799, Lithium Salt] the inhibition at 0.1 µM was 96%.

With “N-[4-(3-Imidazol-1-ylprolpylaminosulfonyl)-2-phenylbenzoyl]methionine Lithium Salt [Example 777]” the “% inhibition at 1 × 10^−6 M” value [1] was 83%.

`CSCC[C@H](NC(=O)c1ccc(CN(Cc2ccccc2)c2cccnc2)cc1-c1ccccc1C)C(=O)O` [Example 407, [4-(N-Benzyl-N-3-pyridylaminomethyl)-2-(2-methylphenyl)benzoyl]methionine] was tested, and the inhibition at 1 µM [1] was 98%.

For `CNC(=O)CC[C@H](NC(=O)c1ccc(COc2cccnc2)cc1-c1ccccc1C)C(=O)O` [Example 314, (S)-2-N-[4-(3-Pyridyloxymethyl)-2-(2-methylphenyl)benzoyl]amino-4-(N-methylaminocarbonyl)butanoic Acid], the “% inhibition at 1 × 10^−6 M” value [1] was 97%.

With `CSCC[C@H](NC(=O)c1cc(Cc2ccccc2)c(COc2cccnc2)cc1-c1ccccc1C)C(=O)O` [Example 344] the inhibition at 1 µM [1] was 95%.

For `CCCC(=O)OC(c1cccnc1)C(OC(=O)CCC)c1ccc(C(=O)N[C@@H](CCS(C)(=O)=O)C(=O)O)c(-c2ccccc2)c1` (stereo partly drawn) [Example 223], the inhibition at 1 µM [1] was 63%.

`CSCC[C@H](NC(=O)c1ccc(CCc2cccnc2)cc1-c1ccccc1C)/C(=N/O)NO` [Example 815, N-[4-(2-Pyrid-3-yleth-1-yl)-2-(2-methylphenyl)benzoyl]methionine N,N-Dihydroxyamidine] showed an inhibition at 0.1 µM [3] of 71%.

For “{4-[2-(3-Pyridy)-2-hydroxyethyl]-2-phenylbenzoyl]methionine Sodium Salt and {4-[2-(3-Pyridy)-1-hydroxyethyl]-2-phenylbenzoyl}methionine Sodium Salt [Example 284]”, the “% inhibition at 1 × 10^−6 M” value [1] was 83%.

For `CSCC[C@H](NC(=O)c1ccc(CSc2cccnc2)cc1-c1ccccc1)C(=O)O` [Example 237, [4-(3-Pyridylthiomethyl)-2-phenylbenzoyl]methionine], the inhibition at 1 µM [1] was 98%.

Compound `CSCC[C@H](NC(=O)c1ccc(NCc2c[nH]cn2)cc1-c1ccccc1C)C(=O)O` [Example 384, 4-[N-(1-H-Imidazole-4-yl)methylamino-2-(2-methylphenylbenzoyl)]methionine] has an inhibition at 0.01 µM [2] of 91%.

`CSCC[C@@H](NC(=O)c1ccc(CNc2cccnc2)cc1-c1ccccc1)C(=O)O` (stereo in doubt) [Example 189, [4-(3-Pyridylaminomethyl)-2-phenylbenzoyl]methionine] gave an inhibition at 1 µM [1] of 88%.

Work on `CSCC[C@H](NC(=O)c1ccc(CN(Cc2ccccc2)c2cccnc2)cc1-c1ccccc1C)C(=O)OCOC(C)=O` [Example 499, Acetoxymethyl N-[4-N-Benzyl-N-pyridin-3-ylaminomethyl-2-(2-methylphenyl)benzoyl]methionine] yielded an inhibition at 1 µM [1] of 98%.

Compound `CSCC[C@H](NC(=O)c1ccc(/C=C/c2cnccc2C(=O)c2ccccc2)cc1-c1ccccc1C)C(=O)O` [Example 483, N-[4-(2-(4-Benzoyl)pyrid-3-ylethen-1-yl)-2-(2-methylphenyl)benzoyl]methionine Lithium Salt] has an inhibition at 0.1 µM [3] of 95%.

For `CSCC[C@H](NC(=O)c1ccc(COc2cccnc2)cc1-c1ccccc1)C(=O)NS(=O)(=O)N1CCN(C)CC1` [Example 401, [4-(3-Pyridyloxymethyl)-2-phenylbenzoyl]methionine 4-Methylpiperazinesulfonimide], the inhibition at 0.01 µM [2] was 66%.

With `CSCCC(OC(=O)c1ccc(/C=C/c2cccnc2)cc1-c1ccccc1C)C(=O)O` (stereo not drawn) [Example 814, 2-[4-(2-Pyrid-3-ylethen-1-yl)-2-(2-methylphenyl)benzoyl]oxy-4-methylthiobutanoic Acid] the inhibition at 0.1 µM [3] was 81%.

`CSCC[C@@H](CC(=O)O)NC(=O)c1ccc(COc2cccnc2)cc1-c1ccccc1` [Example 248] gave an inhibition at 1 µM [1] of 79%.

In the case of `CSCC[C@H](NC(=O)c1ccc(CN(Cc2cccnc2)Cc2cc(F)cc(F)c2)cc1-c1ccccc1C)C(=O)O` [Example 1286, N-[4-N-(N-(3-Pyridylmethyl)-N-(3,5-difluorobenzyl)aminomethyl)-2-(2-methylphenyl)benzoyl]methionine Lithium Salt], the inhibition at 0.01 µM (read-out: % inhibition at 0.01 μM) is reported as 85%.

`CSCC[C@H](NC(=O)c1ccc(NCc2cccnc2)cc1-c1ccccc1)C(=O)OCCC(C)C` [Example 193, [4-(3-Pyridylmethylamino)-2-phenylbenzoyl]methionine Isoamyl Ester] was tested, and the inhibition at 1 µM [1] was 4%.

With `CNC(=O)[C@H](CCSC)NC(=O)c1ccc(NCc2cccnc2)cc1-c1ccccc1` [Example 197, [4-(3-Pyridylmethylamino)-2-phenylbenzoyl]methioninemethylamide] the inhibition at 1 µM [1] was 1%.

With “[4-(3-Pyridyloxymethyl)-2-(2-ethylphenyl)benzoyl]methionine Methyl Ester [Example 306]” the “% inhibition at 1 × 10^−6 M” value [1] was 99%.

With `CSCC[C@@H](C(=O)O)N(C)C(=O)c1ccc(CN(Cc2ccccc2)c2cccnc2)cc1-c1ccccc1C` [Example 602, N-[4-(N-Benzyl-N-pyrid-3-ylaminomethyl)-2-(2-methylphenyl)benzoyl]-N-methylmethionine] the inhibition at 0.1 µM [3] was 97%.

`CSCC[C@H](NC(=O)c1ccc(/C=C/n2ccnc2)cc1-c1ccccc1)C(=O)O` [Example 217, {4-[2-(1-H-Imidazole-1-yl)ethenyl]-2-phenylbenzoyl}methionine Sodium Salt] was tested, and the inhibition at 1 µM was 99%.

Source: patent publication US6693123B2 (University of Pittsburgh, priority 1995, dated 2004)
